This is an account of results in PubChem BioAssay AID743059 (The Scripps Research Institute Molecular Screening Center, 2013).

In general, EC50 refers to the concentration that produces a half-maximal response.

The source made the active and inactive calls.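 The calls were made as follows: active = EC50 at or below 10 µM; inactive = EC50 above 10 µM.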

This test concerns the target Nuclear hormone receptor DAF-12 (Heterodera glycines). Put plainly: H. glycines DAF-12 receptor agonist potency, dose response, cell-based, luminescence, HEK293 (AID 743059).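 Also: agonist potency for compounds that raise hgDAF-12 reporter luminescence.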 The note with it: HEK293 hgDAF-12 reporter, luciferase luminescence.
Take `N=C1/C(=C/c2ccc(OCc3ccccc3F)cc2)C(=O)N=C2SC(CC(=O)N3CCOCC3)=NN12`: the EC50 was > 67.5 µM (inactive). In the case of `O=C(NCCCn1ccnc1)c1cc(-c2ccccc2)on1` it was 9.16 µM; in that of `Cc1ccc(Nc2ncccc2C(N)=O)cc1`, > 67.4 µM (inactive). Consider `Cc1ccc(NC(=S)NC(=O)C2CCCC2)c(Br)c1`, for which the EC50 was > 67.5 µM (inactive).

With `Brc1ccc(-c2noc(-c3ccccn3)n2)o1`, the EC50 was > 67.5 µM (inactive). For the molecule `Cc1ccc(/C=N/N=C/c2ccc(C)s2)s1`, the EC50 was > 67.5 µM (inactive).

For the molecule `Cc1cc(C(=O)NC2CCCCC2)c(C)n1-c1ccc(F)cc1`, the EC50 is > 67.5 µM (inactive). As to `Cc1cc(C)nc(-n2nc(C)c(Sc3ccc(F)cc3)c2N)n1`, the EC50 was > 67.5 µM (inactive). On to `COCCNC(=O)/C(C#N)=C/c1cc(C)n(-c2ccc(C)cc2)c1C`, for which the EC50 is > 67.5 µM (inactive). Turning to `Oc1cccc(/C=C/c2ccc3cccc(O)c3n2)c1`, the EC50 was > 67.6 µM (inactive). Consider `OC(c1ccccc1)c1nc(-c2cnc3ccccc3c2)cs1` (configuration not stated), for which the EC50 is > 67.6 µM (inactive). For `O=C(N/N=C/c1cccs1)c1n[nH]c2c1CCC2`, the EC50 is > 67.5 µM (inactive). For the molecule `Nc1ccc(C(=O)Nc2ccccc2N)cc1`, the EC50 was 4.24 µM. In the case of `O=c1c2ccccc2cnn1-c1ccc2ccccc2c1` it was > 67.5 µM (inactive).

With `CC(=Nc1ccc(Cl)cc1N)c1c(O)cc(C)oc1=O`, the EC50 was > 67.6 µM (inactive).

Turning to `Cc1c(C(=O)OC2CCC(C)CC2)[nH]c2c1C(=O)CCC2` (configuration not stated), the EC50 is > 67.5 µM (inactive). In the case of `Cc1nn(C(=O)c2cccs2)c(N)c1-c1ccccc1` it was > 67.5 µM (inactive); in that of `Cc1ccc(NC(=S)N/C(=N/S(=O)(=O)c2ccccc2)c2ccccc2)cc1`, > 67.5 µM (inactive). In the case of `Cc1ccc(-c2cn3cccnc3n2)cc1` it was > 67.6 µM (inactive).

For `CCOC(=O)c1c(C)oc2c1cc(O)c1ccccc12`, the EC50 is > 67.5 µM (inactive). For `CCOC(=O)c1csc(-c2sccc2Br)n1` the value was > 67.6 µM (inactive); for `O=C(Nc1ccn(Cc2ccccc2)n1)c1n[nH]c([N+](=O)[O-])c1Cl`, > 67.5 µM (inactive). For `Clc1ccccc1Nc1nc2ccccc2o1`, the EC50 is > 67.6 µM (inactive). In the case of `Cc1cccc(/C(N)=N/OC(=O)c2cccs2)c1` it was > 67.5 µM (inactive); in that of `CCN(CC)S(=O)(=O)c1cc(C(=O)OCC(=O)Nc2ccc(-c3nc4ccc(C)cc4s3)cc2)ccc1F`, > 67.5 µM (inactive).

With `Cc1cc(C(=O)NC2=NCCS2)cs1`, the EC50 is > 67.5 µM (inactive). As for `Cc1nn(-c2nnc(NC3CCCCC3)nn2)c(C)c1Br`, the EC50 was > 67.6 µM (inactive). For `CCOC(=O)CSc1nc(-c2ccncc2)ccc1C#N` the value was > 67.5 µM (inactive); for `O=c1c2ccccc2nnn1CCc1ccccc1`, > 67.4 µM (inactive); for `Cc1ccc(SCCSc2ncccn2)cc1`, > 67.5 µM (inactive). Consider `CCOC(=O)c1cnc(SCc2ccccc2)nc1N`, for which the EC50 is > 67.5 µM (inactive). In the case of `O=C(Nc1ccc(Cl)cn1)c1cc2ccccc2o1` it was > 67.5 µM (inactive); in that of `CN(C)CCNc1ncnc2c1ncn2[C@H]1CN(Cc2cccnc2)C[C@@H](CO)O1`, > 67.5 µM (inactive). For the molecule `O=c1[nH]c(=O)n(C2CC(O)C(CO)O2)cc1Br` (configuration not stated), the EC50 was > 67.6 µM (inactive). For `Cc1ccc2oc(-c3cccc(N)c3)nc2c1`, the EC50 was > 67.6 µM (inactive). In the case of `CC(=Nc1cccc(C)c1)c1sc2ccccc2c1O` it was > 67.6 µM (inactive); in that of `Cc1cccc(Nc2n[nH]c(C)c2[N+](=O)[O-])c1`, > 67.5 µM (inactive); in that of `Clc1ccccc1Nc1nnc(-c2ccncc2)s1`, > 67.5 µM (inactive). Take `C(=N\NC1=Nc2cccc3cccc1c23)/c1ccccc1`: the EC50 was > 67.5 µM (inactive). In the case of `O=C(CCCc1ccccc1)NC12CC3CC(CC(C3)C1)C2` it was > 67.5 µM (inactive); in that of `Fc1ccccc1CSc1ncnc2c1ncn2C1CCCCO1` (configuration not stated), > 67.6 µM (inactive); in that of `C=CCN1C(=O)[C@@H](CC(=O)N2CCSCC2)[C@]2(C(=O)OC)CCCCC=C12`, > 67.5 µM (inactive). For `Nc1nn(-c2cccc(F)n2)cc1-c1ccccc1`, the EC50 is > 67.5 µM (inactive). In the case of `Cc1cccc(/C=C\c2nc3ccccc3c(=O)[nH]2)c1` it was > 67.5 µM (inactive). For the molecule `CN(C)/C=N/C(=S)Nc1ccc(Cl)cc1`, the EC50 is > 67.5 µM (inactive).

For `C/C(=C\C(=O)c1sccc1Cl)N(C)C`, the EC50 was > 67.6 µM (inactive). For `O=C(Nc1ncccc1O)c1ccc(C(=O)c2ccccc2)cc1` the value was 4.55 µM; for `Cc1ccc(/C=N/NC(=O)c2ccoc2C)s1`, > 67.6 µM (inactive); for `Clc1ccc(CSc2nc3ccncc3[nH]2)cc1`, > 67.5 µM (inactive). In the case of `S=C(c1ccc(-c2ccc(Cl)cc2)o1)N1CCCCC1` it was > 67.5 µM (inactive); in that of `Cn1c(NCc2c[nH]c3ccccc23)nc2ccccc21`, > 67.5 µM (inactive); in that of `O=[N+]([O-])c1cccnc1NCCNc1ncc(C(F)(F)F)cc1Cl`, > 67.5 µM (inactive). For the molecule `CC1=CN2C(=N)/C(=C/c3ccco3)C(=O)N=C2S1`, the EC50 was > 67.5 µM (inactive). For `CC(C)C(N)c1csc(Nc2nncc3ccccc23)n1` (configuration not stated) the value was > 67.1 µM (inactive); for `C/C(=N\NC(=O)OC(C)(C)C)c1ccc[nH]1`, > 67.6 µM (inactive); for `O=C(Nc1ccccc1O)c1ccc(NS(=O)(=O)c2cccc3cccnc23)cc1`, 3.3 µM. `N=C1c2ccccc2CN1CC(=O)c1ccccc1`: the EC50 is > 67.6 µM (inactive). In the case of `CCOC(=O)c1c(C)[nH]c(N=Nc2cccc(OC)c2)c1C` it was > 67.5 µM (inactive). In the case of `Cc1ccc(/C(N)=N/OC(=O)c2cccs2)cc1` it was > 67.6 µM (inactive).

Regarding `CC(=Nc1ccccc1)c1sc2ccccc2c1O`, the EC50 is > 67.6 µM (inactive). Consider `OCc1ccc(N=Nc2ccccc2)cc1`, for which the EC50 was > 67.5 µM (inactive). Turning to `Clc1ccc(Nc2nc(-c3cccs3)cs2)nc1`, the EC50 was > 67.5 µM (inactive).

Regarding `Cc1cc(OCc2cc(C(=O)NCc3cc(C(C)C)no3)no2)cc(C)c1Cl`, the EC50 is > 67.5 µM (inactive). In the case of `CCc1ccc2oc(-c3cccc(N)c3)nc2c1` it was > 67.6 µM (inactive); in that of `Oc1[nH]c2ccccc2c1C=Nc1ccccc1`, > 67.5 µM (inactive); in that of `C/C(=N/NC(=O)c1cc(C(C)C)[nH]n1)c1cccs1`, > 67.6 µM (inactive). For `CCOC(=O)N1CCC(NC(=O)c2cc3ccccn3n2)CC1` the value was > 67.5 µM (inactive); for `COc1cccc(-c2noc(-c3cccs3)n2)c1`, > 67.6 µM (inactive); for `c1ccc(CCSc2nccn2-c2ccccc2)cc1`, > 67.6 µM (inactive). For `Cc1cc(N=Nc2ccc3ccccc3c2)ccc1O` the value was > 67.6 µM (inactive); for `COC1=C/C(=C/c2c(O)c(C#N)c3ccccn23)C=CC1=O`, > 67.5 µM (inactive); for `Oc1ccccc1-c1cc(-c2ccc(Cl)cc2)n[nH]1`, > 67.5 µM (inactive). With `Nc1nc(Nc2ccc(Cl)cc2)nc2ccccc12`, the EC50 is > 67.5 µM (inactive). For `CCCCSc1ncnc2c1ncn2C1CCCCO1` (configuration not stated) the value was > 67.4 µM (inactive); for `COc1cccc(-c2nc(-c3ccc(Br)o3)no2)c1`, > 67.5 µM (inactive); for `Cc1c(C(=O)Nc2nccs2)oc2ccccc12`, > 67.6 µM (inactive). In the case of `CCS(=O)(=O)Nc1cc(-c2nc3cccnc3s2)ccc1C` it was > 67.5 µM (inactive); in that of `Cc1c(C(=O)Nc2ccccc2)csc1-c1ccccc1`, > 67.5 µM (inactive). In the case of `Cc1ccc2nc(-c3ccccn3)oc2c1` it was > 67.6 µM (inactive); in that of `c1cncc(-c2noc(-c3ccc4ccccc4c3)n2)c1`, > 67.5 µM (inactive); in that of `Cc1ccc(N=Nc2ccc(O)cc2)c(Br)c1`, > 67.5 µM (inactive). Regarding `CCn1c(O)c(C=Nc2ccccc2)sc1=S`, the EC50 is > 67.5 µM (inactive).

For `Cc1nn(-c2ccccc2)c(Cl)c1/C=N/Nc1ccc(Cl)c(C(=O)O)c1`, the EC50 was > 67.5 µM (inactive). As for `Cc1cc(NC(=O)c2nn3cccnc3c2Cl)no1`, the EC50 was > 67.5 µM (inactive).

Regarding `N/C(=N\OC(=O)c1cc(Br)ccc1Cl)c1ccccn1`, the EC50 was > 67.5 µM (inactive). In the case of `Cc1cc2nn(-c3ccc(F)cc3)nc2cc1N` it was > 67.5 µM (inactive); in that of `Cc1ccc(OCc2ccc(Br)cc2)c([N+](=O)[O-])n1`, > 67.5 µM (inactive); in that of `CS(=O)(=O)c1ccc2nc(NC(=O)Nc3ccccc3F)sc2c1`, > 67.5 µM (inactive).

Take `FC(F)(F)c1cc(Cl)c2nc(-c3ccccc3)cn2c1`: the EC50 is > 67.5 µM (inactive). For `Cc1cc(-c2nc3cccnc3s2)ccc1NS(=O)(=O)c1cccs1` the value was > 67.5 µM (inactive); for `Cc1ccc(Nc2ncccc2C(N)=O)cc1[N+](=O)[O-]`, > 67.6 µM (inactive). As for `C(=C\n1nnc2ccccc21)/c1ccccn1`, the EC50 was > 67.5 µM (inactive). For `CN(C)c1ccc(C(C#N)c2ccccc2)nn1` (configuration not stated) the value was > 67.5 µM (inactive); for `O=C(Nc1ccccn1)c1csc2c1CCCC2`, > 67.5 µM (inactive); for `COc1ccc2oc3cc(NCCN(C)C)ccc3c(=O)c2c1`, “inactive”. In the case of `Cc1ccc(-c2nc(-c3ccncc3)no2)cc1C` it was > 67.5 µM (inactive); in that of `COc1ccc2[nH]c(C(=O)Nc3cccc(C)n3)cc2c1`, > 67.5 µM (inactive).
